# Patent publication US11498899B2, “Nitrone herbicides” (FMC Corporation, priority 2016, dated 2022)
# Assays:
# [1] = tested on: barnyardgrass (Echinochloa crus-galli); experiment: Test A preemergence, visual injury rating 0-100 (0 no effect, 100 complete control); assay type: in vivo; conditions: for Barnyardgrass plant response rating (0 to 100 scale): 125 g ai/ha; for Barnyardgrass plant response rating: 500 g ai/ha, 0 to 100 scale
# [2] = tested on: ducksalad (Heteranthera limosa); experiment: Test B flooded paddy test, visual rating 0-100; conditions: Flood, 250 g ai/ha, applied to paddy water, rated after 13 to 15 days
# [3] = tested on: wheat (Triticum aestivum); experiment: Test A postemergence, visual injury rating 0-100; assay type: in vivo; conditions: 0 to 100 scale
# [4] = tested on: barnyardgrass (Echinochloa crus-galli); experiment: Test A postemergence, visual injury rating 0-100; assay type: in vivo; conditions: 0 to 100 scale
# [5] = tested on: ryegrass, Italian (Italian ryegrass, Lolium multiflorum); experiment: Test A postemergence, visual injury rating 0-100; assay type: in vivo; conditions: 0 to 100 scale
# [6] = tested on: foxtail, green (green foxtail, Setaria viridis); experiment: Test A postemergence, visual injury rating 0-100; assay type: in vivo; conditions: 0 to 100 scale
# [7] = tested on: blackgrass (Alopecurus myosuroides); experiment: Test A postemergence, visual injury rating 0-100; assay type: in vivo; conditions: 0 to 100 scale
# [8] = tested on: pigweed (Amaranthus retroflexus); experiment: Test A postemergence, visual injury rating 0-100; assay type: in vivo; conditions: 0 to 100 scale
# [9] = tested on: corn (Zea mays); experiment: Test A postemergence, visual injury rating 0-100; assay type: in vivo; conditions: 0 to 100 scale
# [10] = tested on: ragweed (common ragweed, Ambrosia elatior); experiment: Test A postemergence, visual injury rating 0-100; assay type: in vivo; conditions: 0 to 100 scale
# [11] = tested on: kochia (Kochia scoparia); experiment: Test A postemergence, visual injury rating 0-100; assay type: in vivo; conditions: 0 to 100 scale
# [12] = tested on: barnyardgrass (Echinochloa crus-galli); experiment: Test B flooded paddy test, visual rating 0-100; conditions: Flood, 250 g ai/ha, applied to paddy water, rated after 13 to 15 days
# [13] = tested on: rice (Oryza sativa); experiment: Test B flooded paddy test, visual rating 0-100 (0 no effect, 100 complete control); conditions: Flood, 250 g ai/ha, applied to paddy water, rated after 13 to 15 days
# [14] = tested on: ryegrass, Italian (Italian ryegrass, Lolium multiflorum); experiment: Test A preemergence, visual injury rating 0-100; assay type: in vivo; conditions: for Ryegrass, Italian plant response rating: 0 to 100 scale
# [15] = tested on: foxtail, green (green foxtail, Setaria viridis); experiment: Test A preemergence, visual injury rating 0-100; assay type: in vivo; conditions: for Foxtail, Green plant response rating: 0 to 100 scale
# [16] = tested on: pigweed (Amaranthus retroflexus); experiment: Test A preemergence, visual injury rating 0-100; assay type: in vivo; conditions: for Pigweed plant response rating: 0 to 100 scale
# [17] = tested on: ragweed (common ragweed, Ambrosia elatior); experiment: Test A preemergence, visual injury rating 0-100; assay type: in vivo; conditions: for Ragweed plant response rating: 0 to 100 scale
# [18] = tested on: kochia (Kochia scoparia); experiment: Test A preemergence, visual injury rating 0-100; assay type: in vivo; conditions: for Kochia plant response rating: 0 to 100 scale
SMILES,Barnyardgrass plant response rating (0 to 100 scale) [1],Barnyardgrass plant response rating [1],Ducksalad plant response rating (0 to 100 scale) [2],Wheat plant response rating ([3]; 125 g ai/ha),Wheat plant response rating ([3]; 500 g ai/ha),Barnyardgrass plant response rating ([4]; 125 g ai/ha),Barnyardgrass plant response rating ([4]; 500 g ai/ha),"Ryegrass, Italian plant response rating ([5]; 125 g ai/ha)","Ryegrass, Italian plant response rating ([5]; 500 g ai/ha)","Foxtail, Green plant response rating ([6]; 125 g ai/ha)","Foxtail, Green plant response rating ([6]; 500 g ai/ha)",Blackgrass plant response rating ([7]; 125 g ai/ha),Blackgrass plant response rating ([7]; 500 g ai/ha),Pigweed plant response rating ([8]; 125 g ai/ha),Pigweed plant response rating ([8]; 500 g ai/ha),Corn plant response rating ([9]; 125 g ai/ha),Corn plant response rating ([9]; 500 g ai/ha),Ragweed plant response rating ([10]; 125 g ai/ha),Ragweed plant response rating ([10]; 500 g ai/ha),Kochia plant response rating ([11]; 125 g ai/ha),also measured
CC1=[N+]([O-])C(C(=O)Nc2cccc(F)c2F)C(c2cccc(C#N)c2)C1 (racemic) [Compound 23],60,90,60,20,50,70,80,0,20,30,80,0,0,0,0,0,0,0,0,0,"Kochia plant response rating ([11]; 500 g ai/ha): 20; Barnyardgrass plant response rating (0 to 100 scale) [12]: 50; Rice plant response rating (0 to 100 scale) [13]: 0; Ryegrass, Italian plant response rating (0 to 100 scale) ([14]; 125 g ai/ha): 0; Ryegrass, Italian plant response rating ([14]; 500 g ai/ha): 0; Foxtail, Green plant response rating (0 to 100 scale) ([15]; 125 g ai/ha): 80; Foxtail, Green plant response rating ([15]; 500 g ai/ha): 90; Pigweed plant response rating (0 to 100 scale) ([16]; 125 g ai/ha): 0; Pigweed plant response rating ([16]; 500 g ai/ha): 0; Ragweed plant response rating (0 to 100 scale) ([17]; 125 g ai/ha): 50; Ragweed plant response rating ([17]; 500 g ai/ha): 80; Kochia plant response rating (0 to 100 scale) ([18]; 125 g ai/ha): 20; Kochia plant response rating ([18]; 500 g ai/ha): 50"
CC1=[N+]([O-])C(C(=O)Nc2cccc(F)c2F)C(c2ccc(C)c(C)c2)C1 (racemic) [Compound 24],90,90,85,50,90,90,90,90,80,80,90,20,60,30,60,50,90,20,50,50,"Kochia plant response rating ([11]; 500 g ai/ha): 70; Barnyardgrass plant response rating (0 to 100 scale) [12]: 70; Rice plant response rating (0 to 100 scale) [13]: 0; Ryegrass, Italian plant response rating (0 to 100 scale) ([14]; 125 g ai/ha): 40; Ryegrass, Italian plant response rating ([14]; 500 g ai/ha): 70; Foxtail, Green plant response rating (0 to 100 scale) ([15]; 125 g ai/ha): 90; Foxtail, Green plant response rating ([15]; 500 g ai/ha): 90; Pigweed plant response rating (0 to 100 scale) ([16]; 125 g ai/ha): 20; Pigweed plant response rating ([16]; 500 g ai/ha): 50; Ragweed plant response rating (0 to 100 scale) ([17]; 125 g ai/ha): 60; Ragweed plant response rating ([17]; 500 g ai/ha): 80; Kochia plant response rating (0 to 100 scale) ([18]; 125 g ai/ha): 40; Kochia plant response rating ([18]; 500 g ai/ha): 90"
CC1=[N+]([O-])C(C(=O)Nc2cccc(F)c2Cl)C(c2ccc(C(F)(F)F)cc2)C1 (racemic) [Compound 31],50,100,0,0,40,30,90,20,20,40,90,20,80,0,30,0,10,0,20,0,"Kochia plant response rating ([11]; 500 g ai/ha): 10; Barnyardgrass plant response rating (0 to 100 scale) [12]: 0; Rice plant response rating (0 to 100 scale) [13]: 0; Ryegrass, Italian plant response rating (0 to 100 scale) ([14]; 125 g ai/ha): 0; Ryegrass, Italian plant response rating (0 to 100 scale) ([14]; 500 g ai/ha): 20; Foxtail, Green plant response rating (0 to 100 scale) ([15]; 125 g ai/ha): 90; Foxtail, Green plant response rating (0 to 100 scale) ([15]; 500 g ai/ha): 100; Pigweed plant response rating (0 to 100 scale) ([16]; 125 g ai/ha): 0; Pigweed plant response rating (0 to 100 scale) ([16]; 500 g ai/ha): 60; Ragweed plant response rating (0 to 100 scale) ([17]; 125 g ai/ha): 0; Ragweed plant response rating (0 to 100 scale) ([17]; 500 g ai/ha): 90; Kochia plant response rating (0 to 100 scale) ([18]; 125 g ai/ha): 0; Kochia plant response rating (0 to 100 scale) ([18]; 500 g ai/ha): 80"
CC1=[N+]([O-])C(C(=O)Nc2cccc(F)c2C#N)C(c2ccc(C(F)(F)F)cc2)C1 (racemic) [Compound 34],80,100,50,0,50,30,70,0,30,0,80,40,80,30,70,0,0,0,50,0,"Kochia plant response rating ([11]; 500 g ai/ha): 30; Barnyardgrass plant response rating (0 to 100 scale) [12]: 35; Rice plant response rating (0 to 100 scale) [13]: 0; Ryegrass, Italian plant response rating (0 to 100 scale) ([14]; 125 g ai/ha): 0; Ryegrass, Italian plant response rating (0 to 100 scale) ([14]; 500 g ai/ha): 0; Foxtail, Green plant response rating (0 to 100 scale) ([15]; 125 g ai/ha): 40; Foxtail, Green plant response rating (0 to 100 scale) ([15]; 500 g ai/ha): 100; Pigweed plant response rating (0 to 100 scale) ([16]; 125 g ai/ha): 0; Pigweed plant response rating (0 to 100 scale) ([16]; 500 g ai/ha): 90; Ragweed plant response rating (0 to 100 scale) ([17]; 125 g ai/ha): 50; Ragweed plant response rating (0 to 100 scale) ([17]; 500 g ai/ha): 100; Kochia plant response rating (0 to 100 scale) ([18]; 125 g ai/ha): 0; Kochia plant response rating (0 to 100 scale) ([18]; 500 g ai/ha): 90"
